Patent publication US9802907B2, “2-aryl selenazole compound and pharmaceutical composition thereof” (JIANGSU ATOM BIOSCIENCE AND PHARMACEUTICAL CO., LTD., priority 2012, dated 2017)
pIC50: −log10 of the molar value.

Target: xanthine oxidase (Bos taurus (Bovine), UniProt P80457)
Details: read-out: Xanthine Oxidase Inhibition Activity (IC50); xanthine oxidase sourced from milk, hypoxanthine substrate, 0.1 M Tris-HCl pH 7.5, 30° C.
Experimental: The inhibition of the activity of xanthine oxidase (XO) is tested through a coupled enzymatic reaction of xanthine oxidase, horseradish peroxidase (HRP) and a substrate thereof. First, xanthine oxidase oxidizes hypoxanthine to produce xanthine and hydrogen peroxide, and further oxidizes xanthine to produce uric acid and hydrogen peroxide. […] The fluorescence intensity of resorufin is determined by using a fluorescence microplate, which is in direct proportion to the activity of xanthine oxidase.
A certain amount of a test compound and a control compound, febuxostat (by Beijing Lianben Pharm-chemicals Tech. Co., Ltd.) were dissolved in DMSO (by Sinopharm Chemical Reagent Co., Ltd.). A 2.5-fold serial dilution of the test compound was diluted with DMSO in a 96-well polypropylene reaction plate (by Greiner Bio One), so as to obtain a 200-fold dilution. The solution was further diluted in ultrapure water to obtain a 3-fold serial dilution. […]
9 μL reaction solution A and 9 μL 3-fold serial dilution of the test compound were mixed in a 96-well test plate (by Greiner Bio One), placed on a flat plate type oscillator, and mixed at 30° C. for 30 min at 100 rpm. […] The fluorescence intensity at 530 nm exciting light and 590 nm emitted light was determined by using a fluorescence microplate (Perkin Elmer Vitor X4).

Chain of xanthine oxidase (P80457 whole entry): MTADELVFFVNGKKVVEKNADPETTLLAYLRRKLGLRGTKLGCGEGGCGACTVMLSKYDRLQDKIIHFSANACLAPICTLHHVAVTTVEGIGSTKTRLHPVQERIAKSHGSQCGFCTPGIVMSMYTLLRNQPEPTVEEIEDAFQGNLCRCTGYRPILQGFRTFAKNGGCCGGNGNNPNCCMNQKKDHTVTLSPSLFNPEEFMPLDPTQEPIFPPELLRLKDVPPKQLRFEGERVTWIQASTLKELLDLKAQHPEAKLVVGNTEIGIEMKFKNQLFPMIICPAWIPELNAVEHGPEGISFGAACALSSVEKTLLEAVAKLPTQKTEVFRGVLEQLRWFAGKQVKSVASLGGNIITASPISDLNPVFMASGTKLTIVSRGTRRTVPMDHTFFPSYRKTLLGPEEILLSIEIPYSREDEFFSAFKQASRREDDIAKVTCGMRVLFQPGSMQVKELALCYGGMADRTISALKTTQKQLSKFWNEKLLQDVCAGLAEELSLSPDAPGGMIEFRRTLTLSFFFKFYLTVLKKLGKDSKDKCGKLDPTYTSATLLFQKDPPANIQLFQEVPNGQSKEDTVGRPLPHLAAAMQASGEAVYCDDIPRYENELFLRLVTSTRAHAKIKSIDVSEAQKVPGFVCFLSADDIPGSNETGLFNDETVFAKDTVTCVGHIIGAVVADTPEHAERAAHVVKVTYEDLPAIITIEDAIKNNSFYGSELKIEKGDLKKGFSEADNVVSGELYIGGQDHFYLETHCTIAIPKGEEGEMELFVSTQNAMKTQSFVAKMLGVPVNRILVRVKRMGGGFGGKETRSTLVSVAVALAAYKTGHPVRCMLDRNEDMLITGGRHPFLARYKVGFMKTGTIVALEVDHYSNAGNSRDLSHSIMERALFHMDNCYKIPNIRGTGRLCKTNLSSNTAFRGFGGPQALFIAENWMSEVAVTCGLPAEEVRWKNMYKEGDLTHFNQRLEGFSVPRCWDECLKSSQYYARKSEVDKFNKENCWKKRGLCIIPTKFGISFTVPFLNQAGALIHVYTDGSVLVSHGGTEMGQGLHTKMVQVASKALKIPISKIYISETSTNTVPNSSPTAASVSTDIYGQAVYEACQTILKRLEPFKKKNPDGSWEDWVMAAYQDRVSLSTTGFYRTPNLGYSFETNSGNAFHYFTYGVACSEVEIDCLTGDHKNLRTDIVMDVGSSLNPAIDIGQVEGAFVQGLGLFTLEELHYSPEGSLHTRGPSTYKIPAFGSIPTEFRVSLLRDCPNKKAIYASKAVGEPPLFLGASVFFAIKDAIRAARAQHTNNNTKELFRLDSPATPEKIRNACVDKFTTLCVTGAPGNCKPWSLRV

2-[3-bromo-4-(aniline formyl)-phenyl]-4-methyl-selenazole-5-carboxylic acid [Compound 67]
pIC50: < 7.00
